The results in this text go back to EP2217930B1, “MALDI MS-BASED HIGH-THROUGHPUT SCREENING METHOD FOR SUBSTANCES INHIBITING AGGREGATION OF ALZHEIMER'S AMYLOID BETA PEPTIDES” (Tallinn University of Technology, priority 2007, dated 2009).

The experiment concerns the target T1, Aβ42 (Homo sapiens, UniProt P05067).
T1 construct: Both 40 and 42 amino acid amyloid beta peptides were purchased from rPeptide; purchased rPeptide (Bogart, USA)
Briefly: automatic MALDI-TOF MS high-throughput screening assay for inhibitors of Aβ42 aggregation (detection of monomeric Aβ42, insulin B chain as internal standard). Particulars: 35 selected substances tested; 5 µM Aβ42 in 20mM HEPES 0.1 M NaCl pH 7.5; monomeric Aβ42 detected by MALDI-TOF MS. The class given is biochemical.

T1 sequence (P05067 672-713 limits assumed): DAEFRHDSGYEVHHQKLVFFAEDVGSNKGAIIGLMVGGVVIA
Method: For every aggregation experiment Aβ42 solutions were prepared following the same procedure. The lyophilized peptide was taken out from the -80°C fridge, and incubated at room temperature until thawing. Cold 0.02% ammonium hydroxide was added to the peptide to get a final concentration of 10 µM. The solution was mixed on the vortex for a minute and put on ice. Before the beginning of the experiment the solution was mixed again for a shorter time. To start the experiment, the peptide stock solution was diluted in a ratio of 1:1 into the buffer, which contained various concentrations of a tested compound. All probes contained 5 µM Aβ42 in 20mM HEPES 0.1 M NaCl pH 7.5. Aβ42 solutions were always prepared shortly before the beginning of experiment.
First, 5 µM B chain solution in 60% AcN 0.3% TFA was prepared and added to the α-cyano matrix solution to generate a 10 mg/ml α-cyano, 0.25 µM B chain solution in 60% AcN 0.3% TFA. The solution was mixed on a vortex for a minute and then incubated at room temperature for 10 minutes. Solution was mixed again, centrifuged for 3 min at 6000 rpm and the supernatant was transferred into a clean vial. Shortly before the beginning of aggregation experiments, Aβ42 solutions were prepared and transferred to sequential wells of a 96-well plate.
Spots on MALDI plates were generated automatically by an Ettan Spotter (Amersham Biosciences, Sweden). Different spotting procedures were tested and best results were obtained using the following method: 0.5 µl sample + 1.5 µl matrix containing the internal calibrant - mixing 3 times with a volume of 1 µl.
The spots were air-dried and spectra were collected automatically with Voyager DE™ STR BioSpectrometry™Workstation (Applied Biosystems, USA) mass spectrometer. […] The spectra were processed with Data Explorer™ Software (Version 4; Applied Biosystems, USA).

In the case of Zn(CH3COO)2 [zinc], the “inhibition of aggregation of Aβ42” value is recorded as “inhibited aggregation of Aβ42”. With copper, the “inhibition of aggregation of Aβ42” value is reported as “inhibited aggregation of Aβ42”. As for hemin, the entry is “inhibits aggregation of Aβ42”.
